Reference: article PMC8398766, “Do Small Molecules Activate the TrkB Receptor in the Same Manner as BDNF? Limitations of Published TrkB Low Molecular Agonists and Screening for Novel TrkB Orthosteric Agonists” (Pharmaceuticals, 2021)
In brackets after ≈: the same amount, converted by molar mass. Where two headings read alike, the source gives them in different places.

Key:
TrkB receptor = biological target: T1, TrkB receptor (Rattus norvegicus, UniProt Q63604); test: ELFI TrkB phosphorylation, orthosteric agonist mode, SN56 T48 cell line; format: cell-based; conditions: 0.125–100 μM, 15 min
T1 construct: host or cells: SN56 T48 cell line
Protocol: The SN56 T48 cell line with stable overexpression of the TrkB receptor was purchased from Emory University (Atlanta, GA, USA) and cultivated according to the protocol described in Jang et al., 2010 [12]. The cell lines were cultivated with the following reagents: DMEM High Glucose, fetal bovine serum (FBS), Penicillin-Streptomycin Solution 100×, and Trypsin-EDTA 1×; all were purchased from Biowest, and G418 was from ThermoFisher Scientific. For the ELFI experiments, cells were seeded (8000/well) on a PDL-treated 96-well plate (BioCoat™, Corning Inc., Corning, NY, USA) and 6-well plate (400,000/well) for lysate collection and immunoblot analysis.
In the orthosteric agonist mode experiments, starved cells (5 h) were treated with compounds (0.125–100 μM; volume, 100 μL/well) or BDNF (0.01–10 nM; volume, 100 μL/well) dissolved in culture medium. In the allosteric modulation mode experiments, starved cells (5 h) were treated with final compound concentrations of 3, 10, and 30 μM; volume, 50 μL/well) in the presence of a rising concentration of BDNF (final concentration in well, 0.15–5 nM; volume, 50 μL/well). Corresponding treatment with DMSO (v/v) was performed for a control. Cells were treated for 15 min in both the orthosteric and allosteric modulation mode experiments.
The analysis of TrkB receptor activation was performed using the ELFI method adapted from Boltayev et al. (2017) with some modifications. After compound treatment, experiments were stopped by fixing cells with 10% buffered formalin (Kolchem, Lodz, Poland) for 20 min (volume, 100 μL/well). Afterwards, cells were permeabilized with washing buffer (TBS+ 0.1% Tween20) for 15 min, and endogenous peroxidases were quenched by 20 min of incubation with 1% H2O2 dissolved in TBS (each solution: volume, 100 μL/well). Epitopes were blocked with 10% BSA (Biowest) dissolved in washing buffer for 2 h (volume, 100 μL/well) and incubated with anti-pTrkB (Tyr707) primary antibody (Cell Signaling Technology, Danvers, MA, USA) diluted in washing buffer (1:500; overnight at 4 °C; volume, 100 μL/well). After repeated washing, cells were incubated with HRP-linked anti-rabbit antibody (Cell Signaling Technology) for 2 h (1:1000; RT; volume, 100 μL/well) and washed. The cells were then incubated with 100 μL of ImmunoCruz™ Western Blotting Luminol (Santa Cruz Biotechnology, Dallas, TX, USA) for 1 min in the dark, and the signals were measured using a microplate luminometer (VICTOR Light 1420-060, PerkinElmer®, Waltham, MA, USA). For non-specific binding, cells were treated, with the exception of primary antibody.

[1] = Metabolic stability in mouse liver microsomes; conditions: for Metabolic stability in MLM (classification): compared with verapamil; for Clint MLM: 1 μM, phase I
PAMPA = conditions: for PAMPA: 10 μM, 4 h
physchem = conditions: 25 °C, pH 7.4, aqueous buffer, kinetic from dmso stock
[2] = Chemical stability pH 7.4; format: physicochemical; conditions: pH = 7.4, 4 h
[3] = Metabolic stability in human liver microsomes; conditions: for Metabolic stability in HLM (classification): compared with verapamil; for Clint HLM: 1 μM, phase I
[4] = Caco-2 passive permeability; conditions: human, Caco-2, with 5 μM elacridar and 20 μM cyclosporine A
exTrkB = biological target: T2, exTrkB (Homo sapiens, UniProt Q16620); test: MST binding affinity (Kd) determination
T2 construct: human TrkB receptor (exTrkB), residues 1−430, was cloned into the pCMV2 expression vector; made in house; host or cells: ExpiCHO-S cells
Protocol: The gene encoding the extracellular domain of the human TrkB receptor (exTrkB), residues 1−430, was cloned into the pCMV2 expression vector. Protein expression was performed in suspension-cultivated mammalian ExpiCHO-S cells using the ExpiFectamine (Thermo Scientific, Thermo Fisher Scientific, Waltham, MA, USA) transfection reagent. The secreted protein was purified using a four-step protocol. Clarified culture medium was precipitated with ammonium sulfate added to a final concentration of 1.5 M and centrifuged (235,000× g, 60 min at 4 °C). The supernatant after centrifugation was applied on a HiTrap Phenyl column (GE Healthcare, Chicago, IL, USA) equilibrated with buffer A (25 mM Tris, 1 mM DTT; pH 7.5) with 1.5 M ammonium sulfate. Bound proteins were eluted with a linear gradient of buffer A. The eluted proteins were dialyzed overnight in buffer A and loaded on a CaptoQ ImpRes column (GE Healthcare) equilibrated with buffer A with 50 mM NaCl. The bound proteins were eluted with a linear gradient of buffer A with 1 M NaCl. The fractions containing exTrkB protein were pooled, and MnCl2 and CaCl2 (1mM final concentration each) were added. The sample was purified on a HiTrap Con A 4B column (GE Healthcare) equilibrated with buffer B (25 mM Tris, 0.5 M NaCl, 1 mM MnCl2, 1 mM CaCl2; pH 7.5) and eluted with buffer C (25 mM Tris, 0.1 M NaCl, 0.4 M α-D-glucopyranoside; pH 6.5). To improve the protein recovery, buffer C flow was paused nine times during elution. The eluted fractions were concentrated and purified by size-exclusion chromatography on a HiLoad 16/600 Superdex 200 column (GE Healthcare) in buffer A with 0.5 M NaCl. The protein samples were concentrated to 1 mg/mL, and buffer was exchanged (PBS; pH 7.4). Samples were frozen in liquid nitrogen and stored at −80 °C. The protein purity was estimated by SDS–PAGE followed by Coomassie Brilliant Blue staining. The protein concentration was determined from the absorption at 280 nm using an UV NanoDrop 1000 spectrophotometer (Thermo Scientific).
The exTrkB was labeled with a Monolith Protein Labeling Kit RED-NHS 2nd Generation (NanoTemper Technologies GmbH, Munich, Germany) according to the manufacturer’s protocol. The labelling efficiency was always determined spectrophotometrically with NanoPhotometer® NP80 (Impel) in line with the manufacturer’s recommendations. Labelled exTrkB protein was aliquoted and stored at −80 °C to avoid repeated freeze–thaw cycles. Before analysis, the exTrkB protein was thawed on ice and diluted with MST buffer (50 mM Tris pH = 8; 150 mM NaCl; 10 mM MgCl2; 0.1% Tween20) to the desired concentration.
For primary screening (single-point MST experiments for signal amplitude determination), each of the 987 screened compounds were diluted in MST buffer + 0.1% Tween20 to a final concentration of 0.5 mM. The tested compounds were mixed with exTrkB solution (the final concentration of exTrkB was 20 nM) and centrifuged (10,000× g, 4 min at 4 °C) to eliminate protein and compound aggregates. Before loading to capillaries (Monolith NT.115 Capillaries, NanoTemper Technologies GmbH), the samples were incubated for 5 min at 25 °C and then placed into the MST apparatus (Monolith, NanoTemper Technologies GmbH). The experiments were performed using nano-blue excitation, LED light adjusted to 20% excitation power, and MST power set to medium, and the fluorescence signal during thermophoresis was detected after 30 s. Single-point MST experiments were performed by the determination of the amplitude signal between the unbound and bound state between the molecule and exTrkB, which was analyzed using the MO.Control Software version 1.6 (NanoTemper Technologies GmbH). A reference sample containing only exTrkB and the equivalent DMSO concentration (v/v) was included in each individual MST experiment. At least three technical replicates were prepared for each of the tested compounds. A binding affinity study was performed for 113 of the selected compounds at 16 concentration points. […]

[5] = Kinetic solubility (shake-flask); conditions: pH 7.4, 4 h, 25 °C
Caco-2 monolayer = test: Caco-2 passive permeability; conditions: for Papp,BA: Caco-2, basal to apical; for Papp,BA / Papp,AB: 2 h; for Papp,AB: Caco-2, apical to basal
[6] = pH 7.4
[7] = biological target: extracellular domain of the human TrkB receptor (exTrkB), residues 1-430 (human) (UniProt Q16620)
[8] = biological target: extracellular domain of the human TrkB receptor (exTrkB), residues 1-430 (human) (UniProt Q16620); test: MST; exTrkB labelled with RED-NHS, 20 nM; ligand titrated at 16 concentration points; MST buffer (50 mM Tris pH 8, 150 mM NaCl, 10 mM MgCl2, 0.1% Tween20); 5 min at 25 °C before loading; Kd binding model

T1 sequence (Q63604 32-821): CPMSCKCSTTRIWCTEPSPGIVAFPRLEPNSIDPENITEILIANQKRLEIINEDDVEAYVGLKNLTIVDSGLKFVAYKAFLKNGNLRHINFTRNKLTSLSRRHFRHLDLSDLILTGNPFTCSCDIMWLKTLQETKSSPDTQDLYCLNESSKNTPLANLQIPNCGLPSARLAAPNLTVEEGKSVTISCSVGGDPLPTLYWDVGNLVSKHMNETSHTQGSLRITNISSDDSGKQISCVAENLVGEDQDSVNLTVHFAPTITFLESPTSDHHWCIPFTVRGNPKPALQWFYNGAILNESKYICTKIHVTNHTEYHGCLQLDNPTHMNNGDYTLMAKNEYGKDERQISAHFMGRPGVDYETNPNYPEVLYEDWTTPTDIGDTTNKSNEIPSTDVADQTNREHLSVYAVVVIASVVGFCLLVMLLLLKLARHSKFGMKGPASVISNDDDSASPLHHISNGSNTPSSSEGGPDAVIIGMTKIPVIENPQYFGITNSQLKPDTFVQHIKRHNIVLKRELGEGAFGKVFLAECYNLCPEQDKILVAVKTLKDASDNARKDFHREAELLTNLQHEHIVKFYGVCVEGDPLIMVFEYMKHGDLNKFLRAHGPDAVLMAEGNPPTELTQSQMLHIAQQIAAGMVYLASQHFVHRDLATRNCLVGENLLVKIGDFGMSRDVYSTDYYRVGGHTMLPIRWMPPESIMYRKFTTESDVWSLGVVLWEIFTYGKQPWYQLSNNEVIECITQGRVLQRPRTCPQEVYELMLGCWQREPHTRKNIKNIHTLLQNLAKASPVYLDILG
T2 sequence (Q16620 32-430): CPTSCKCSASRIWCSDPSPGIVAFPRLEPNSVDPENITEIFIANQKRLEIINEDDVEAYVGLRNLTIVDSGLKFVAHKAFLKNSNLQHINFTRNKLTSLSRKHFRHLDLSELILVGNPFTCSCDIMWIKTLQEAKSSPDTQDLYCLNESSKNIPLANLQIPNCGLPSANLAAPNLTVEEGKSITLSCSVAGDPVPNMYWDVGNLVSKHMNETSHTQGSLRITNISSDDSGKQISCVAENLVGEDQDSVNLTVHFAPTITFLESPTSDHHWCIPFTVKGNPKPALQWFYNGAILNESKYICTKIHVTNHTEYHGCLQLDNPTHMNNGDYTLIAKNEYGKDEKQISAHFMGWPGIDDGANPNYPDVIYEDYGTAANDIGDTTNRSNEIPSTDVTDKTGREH
Sequence of extracellular domain of the human TrkB receptor (exTrkB), residues 1-430 (human) (Q16620 32-430): as above

Compound	Orthosteric activity (induction of TrkB phosphorylation) (TrkB receptor)	Metabolic stability in MLM (classification) [1]	Chemical Stability [% of Degradation] [2]	Metabolic stability in HLM (classification) [3]	Binding to the exTrkB receptor (exTrkB)	PAMPA (PAMPA)	Kinetic Solubility [5]	Clint HLM [3]	Papp,BA (Caco-2 monolayer)	Clint MLM [1]	Papp,AB (Caco-2 monolayer)	also measured
O=c1cc(-c2cccc(O)c2)oc2c(O)c(O)ccc12 [7,8,3′-THF, 7,8,3′-trihydroxyflavone]	did not observe any orthosteric activity	moderate degradation rate	Stable	moderate degradation rate	not observed							microsomal CLint at 1 μM ([1]; mouse, liver microsomes): 26.6 µL/min/mg; Papp at 4 h, 10 μM (PAMPA; PAMPA, pH 7.4): 1.1 ×10⁻⁶ cm/s; solubility kinetic at 4 h (physchem): 168 µM (≈ 45.4 µg/mL); microsomal CLint at 1 μM ([3]; human, liver microsomes): 49.4 µL/min/mg; Papp A→B at 2 h [4]: 3 ×10⁻⁶ cm/s; Papp B→A at 2 h [4]: 11.1 ×10⁻⁶ cm/s
O=C(NCCO)c1cc(C(=O)NCCO)cc(C(=O)NCCO)c1 [LM22-A4]	did not observe any orthosteric activity	very good metabolic stability	Stable	very good metabolic stability	not observed	0.01 10^−6·cm/s	397 µM	3.7 μL·min^−1·mgprotein^−1	0.12 10^−6·cm/s			
CC(=O)NCCc1c[nH]c2ccc(O)cc12 [NAS, N-acetylserotonin]	did not observe any orthosteric activity	very good metabolic stability	Stable	very good metabolic stability	not observed	<0.01 10^−6·cm/s	404 µM	0.3 μL·min^−1·mgprotein^−1	8.00 10^−6·cm/s	1.5 μL·min^−1·mgprotein^−1	8.86 10^−6·cm/s	
CC(C)CCNc1ncccc1C(=O)N1CCN(Cc2ccccc2)CC1 [NSI-189]	did not observe any orthosteric activity	highly unstable	0.65%	highly unstable	not observed	8.91 10^−6·cm/s		466.6 μL·min^−1·mgprotein^−1	13.22 10^−6·cm/s	1316.7 μL·min^−1·mgprotein^−1	28.23 10^−6·cm/s	Permeability in PAMPA assay (good permeability) (PAMPA): > 10^−6 cm/s; Kinetic Solubility [6]: 500 µM; Permeability in Caco-2 system (good permeability) (Caco-2 monolayer): > 10^−6 cm/s
Brain-derived neurotrophic factor (ligand)												EC50 of TrkB phosphorylation (Y706) by enzyme-linked fixed-cell immunoassay (ELFI) in SN56 T48 cells overexpressing TrkB; BDNF 0.01-10 nM, 15 min [7]: 4 nM; Kd [8]: 93 nM
